Test results published in BindingDB's records for doi:10.1016/j.bmcl.2004.09.002 (A.V. Bogatsky Physico-Chemical Institute of The National …, 2004).
pIC50: −log10 of the molar value. Counter-ions that a name gives are not always drawn.

Assay: In vitro inhibition of human platelet aggregation in suspension

| pIC50 | SMILES |
| --- | --- |
| 6.57 | O=C(O)CC(NC(=O)CCC(=O)Nc1ccc2c(c1)CNC2)c1ccccc1 (configuration not stated) [3-[3-(2,3-Dihydro-1H-isoindol-5-ylcarbamoyl)-propionylamino]-3-phenyl-propionic acid; hydrochloride] |
| 5.68 | O=C(O)CCNC(=O)CCC(=O)Nc1ccc2c(c1)CNC2 [3-[3-(2,3-Dihydro-1H-isoindol-5-ylcarbamoyl)-propionylamino]-propionic acid; hydrochloride] |
